Measurements from US20240390413A1, “POLYMERS OBTAINED BY THE REACTION OF A PHENOLIC COMPOUND AND A CARBONYL COMPOUND AS ANTI-SARS-COV-2 AGENTS” (BASF SE, priority 2021, published 2024).
Read-outs that look alike come from different tables or passages of the source.

Legend:
SARS-CoV-2 [1] = format: cell-based; conditions: Calu3 cells; formulations A-1 to A-6 (1,000 to 0 μg/ml condensation product); Camostat 100 μM or 10 μM as control
SARS-CoV-2 [2] = format: cell-based; conditions: precision cut human lung slices; 1, 10 or 100 μg/ml; water control

## CN(C)C(=O)COC(=O)Cc1ccc(OC(=O)c2ccc(NC(=N)N)cc2)cc1 [Camostat]
SARS-CoV-2 [1]
  viral titer: reduction observed
SARS-CoV-2 [2]
  viral titer: reduced the viral titer in a dose-dependent manner
